Measurements published in patent US8278072B1, “Method for synthesis of sialylated products using reversible sialylation” (Health Research, Inc., priority 2007, dated 2012).

Key:
ST3Gal-II = molecular target: T1, ST3Gal-II (Rattus norvegicus, UniProt Q11205); test: Serial transfer of sialic acid from donor via 5′-CMP to acceptors (scheme-II); assay type: biochemical; conditions: 0.15 mM donor; 2 mM 5′-CMP with core-2 donors
T1 construct: purchased Calbiochem
T1 sequence (Q11205 1-350): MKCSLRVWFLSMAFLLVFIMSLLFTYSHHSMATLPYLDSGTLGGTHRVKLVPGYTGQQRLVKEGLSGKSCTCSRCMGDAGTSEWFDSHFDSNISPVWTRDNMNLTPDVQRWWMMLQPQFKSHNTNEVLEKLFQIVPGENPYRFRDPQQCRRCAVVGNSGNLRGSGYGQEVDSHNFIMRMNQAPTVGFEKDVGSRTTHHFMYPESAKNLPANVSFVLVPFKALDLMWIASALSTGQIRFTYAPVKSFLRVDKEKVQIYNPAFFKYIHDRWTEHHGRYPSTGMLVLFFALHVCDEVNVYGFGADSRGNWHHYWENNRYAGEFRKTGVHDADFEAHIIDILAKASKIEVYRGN

T47D = test: Reversible sialyltransferase activity in cell extract; assay type: biochemical, human; conditions: T47D (breast) cell extract, 1.0 mM 5′-CMP, 16 h, pH 6.0
Source text: (§1) Thus, [9-^3H[4]] was used as donor and D-Fucβ1,3GalNAcα-O-Bn as acceptor in the presence of 5′-CMP and solubilized cell extracts. Of the cells tested, human prostate cancer cell lines LNCaP and PC-3 contained significant reversible sialyltransferase activity.

MDA-MB-435 = test: as above; assay type: biochemical, human; conditions: MDA-MB-435 (breast) cell extract, 1.0 mM 5′-CMP, 16 h, pH 6.0
Source text: as §1

HL60 = test: as above; assay type: biochemical, human; conditions: HL60 (leukemia) cell extract, 1.0 mM 5′-CMP, 16 h, pH 6.0
Source text: as §1

PC3 = test: as above; assay type: biochemical, human; conditions: PC3 (prostate) cell extract, 1.0 mM 5′-CMP, 16 h, pH 6.0
Source text: as §1

LS180 = test: as above; assay type: biochemical, human; conditions: LS180 (colon) cell extract, 1.0 mM 5′-CMP, 16 h, pH 6.0
Source text: as §1

MCF-7 = test: as above; assay type: biochemical, human; conditions: MCF-7 (breast) cell extract, 1.0 mM 5′-CMP, 16 h, pH 6.0
Source text: as §1

LNCaP = test: as above; assay type: biochemical, human; conditions: LNCaP (prostate) cell extract, 1.0 mM 5′-CMP, 16 h, pH 6.0
Source text: as §1

MDA-MB231 = test: as above; assay type: biochemical, human; conditions: MDA-MB231 (breast) cell extract, 1.0 mM 5′-CMP, 16 h, pH 6.0
Source text: as §1

ZR75-1 = test: as above; assay type: biochemical, human; conditions: ZR75-1 (breast) cell extract, 1.0 mM 5′-CMP, 16 h, pH 6.0
Source text: as §1

Substance: [9-^3H]NeuAcα2,3Galβ1,3(6-O-SulfoGlcNAcβ1,6)GalNAcα-O—Al [[4]]
- amount of acceptor [5] required for comparable transfer (ST3Gal-II): ~6 mM
- Transfer of [9-3H]NeuAc from [9-3H[4]] to [5] (T47D): 0.52 CPM × 10^−3/mg protein
- Transfer of [9-3H]NeuAc from [9-3H[4]] to [5] (MDA-MB-435): 0.69 CPM × 10^−3/mg protein
- Transfer of [9-3H]NeuAc from [9-3H[4]] to [5] (HL60): 0.76 CPM × 10^−3/mg protein
- Transfer of [9-3H]NeuAc from [9-3H[4]] to [5] (PC3): 4.72 CPM × 10^−3/mg protein
- Transfer of [9-3H]NeuAc from [9-3H[4]] to [5] (LS180): 0.01 CPM × 10^−3/mg protein
- Transfer of [9-3H]NeuAc from [9-3H[4]] to [5] (MCF-7): 0.57 CPM × 10^−3/mg protein
- Transfer of [9-3H]NeuAc from [9-3H[4]] to [5] (LNCaP): 19.89 CPM × 10^−3/mg protein
- Transfer of [9-3H]NeuAc from [9-3H[4]] to [5] (MDA-MB231): 0.09 CPM × 10^−3/mg protein
- Transfer of [9-3H]NeuAc from [9-3H[4]] to [5] (ZR75-1): 1.32 CPM × 10^−3/mg protein
